Assay results: patent US20240300977A1, “INHIBITORS OF DNA-DEPENDENT PROTEIN KINASE AND COMPOSITIONS AND USES THEREOF” (Intellia Therapeutics, Inc., priority 2021, published 2024)

What was measured:
Type in all cases: cell-based, human
T cells [1] = test: HD3 TCR insertion within TRAC in T cells, flow cytometry; conditions: Spy Cas9 + Compound 4, HD3 TCR AAV, day 7
Method: 48 hours post-activation, T cells were harvested, centrifuged at 500 g for 5 min, and resuspended at a concentration of 6.41×10^5 T cells/mL in T cell plating media (TCPM): a serum-free version of TCGM containing 400 U/mL recombinant human interleukin-2 (Peprotech, Cat. 200-02), 10 ng/mL recombinant human interleukin 7 (Peprotech, Cat. 200-07), and 10 ng/mL recombinant human interleukin 15 (Peprotech, Cat. 200-15). 50 μL of T cells in TCPM (3.2×10^4 T cells) were added per well to be treated in flat-bottom 96-well plates.
LNPs were generated as described in Example 1 at a ratio of 50/38.5/10/1.5 (Lipid A/cholesterol/DSPC/PEG2k-DMG).
Mix “A” was serially diluted 1:2 in TCTM, and mixed 1:1 by volume with mix “B”. 25 μL of the resulting solution was added to 3.2×10^4 T cells in 96-well plates.
Next, a repair template in the form of an adeno-associated virus (AAV) encoding the HD3 TCR (SEQ ID NO: 18 was diluted in TCTM to 3.84×10^11 genome copies/mL in the presence or absence of Compound 4 diluted to 2 μM. 25 μL of the resulting solution was added to T cells that were treated with LNPs in the prior step. To enable editing assessments by NGS without the interference of repair templates, an arm of this experiment received 25 μL of TCTM with or without Compound 4 diluted to 2 μM in the absence of AAVs.
Following the addition of LNPs, repair templates and Compound 4, T cells were incubated at 37° C. for 48 hours, at which time T cells were centrifuged at 500 g for 5 min, resuspended in 200 μL of TCGM and returned to the incubator.
Also on day 4 post-treatment, cells that received AAV templates were mixed and sub-cultured at a 1:4 ratio (v/v) in TCGM. On day 7 post-treatment, cells that received AAV templates were evaluated by flow cytometry.
On day 7 post-LNP treatment, 50 μL of cells were transferred to U-bottom 96-well plates and spun down for 5 min at 500 g. The supernatant was discarded, cells were resuspended in 100 μL of FACS buffer containing Viakrome 808 (Beckman C., Cat. C36628) (1:100), PC5.5 anti-CD3 (Biolegend, Cat. 317336) (1:200), BV421 anti-CD4 (Biolegend, Cat. 317434) (1:100), BV785 anti-CD8 (Biolegend, Cat. 301046) (1:100), and anti-V07.2 (Beckman C., IM3604) (1:50) and stained for 30 min at 4° C. in the dark. Cells were washed once with 200 μL of FACS buffer, resuspended in 100 μL of FACS buffer and processed on a Cytoflex LX flow cytometer.

T cells [2] = test: Off-target structural variation by UnIT; conditions: T cells from Example 12, day 8 post-editing; TRAC sgRNA G013006
Description: On day 8 post-editing, T cells from Example 12 from the untreated, unedited, Compound 3 and Compound 4 guides samples were collected, spun down and the pellets were directly used as input material for gDNA isolation using “Zymo Quick DNA/RNA Mag Beads Kit” (Zymo Cat. R2131). The UnIT structural variant characterization assay was applied to these gDNA samples. High molecular weight genomic DNA is simultaneously fragmented and sequence-tagged (‘tagmented’) with the Tn5 transposase and an adapter with a partial Illumina P5 sequence and a 12 bp unique molecular identifier (UMI). Two sequential PCRs using a primer to P5 and hemi-nested gene specific primers (GSP) imparting the Illumina the P7 sequence to create two Illumina compatible NGS libraries per sample (Illumina, Ref 15033624). Sequencing across both directions of the CRISPR/Cas9 targeted cut site with the two libraries allows the inference and quantification of structural variants in DNA repair outcomes after genome editing. If the two fragments were aligned to different chromosomes, the SV was classified as an “inter-chromosomal translocation.” The magnitude of structural variation was shown in FIG. 9A and Table 18.

NK cells = test: Percent editing at AAVS1 in NK cells by NGS
Method: Genomic DNA was extracted using QuickExtract™ DNA Extraction Solution (Lucigen, Cat. QE09050) according to manufacturer's protocol.
To quantitatively determine the efficiency of editing at the target location in the genome, next generation sequencing was utilized to identify the presence of insertions and deletions introduced by gene editing. […] Primer sequence design was done as is standard in the field.
Additional PCR was performed according to the manufacturer's protocols (Illumina) to add chemistry for sequencing. The amplicons were sequenced on an Illumina MiSeq instrument. The reads were aligned to the human (e.g., hg38) reference genome after eliminating those having low quality scores. The resulting files containing the reads were mapped to the reference genome (BAM files), where reads that overlapped the target region of interest were selected and the number of wild-type reads versus the number of reads which contain an insertion or deletion (“indel”) was calculated.
The editing percentage (e.g., the “editing efficiency” or “percent editing”) is defined as the total number of sequence reads with insertions or deletions (“indels”) over the total number of sequence reads, including wild type.
NK cells were assessed for the impact of DNA protein kinase inhibitors (DNA-PKI) on indel and insertion rates. […]

Cc1cc2ncnn2cc1Nc1ncc2c(n1)n(C1CCC3(CC1)CC3)c(=O)n2C [Compound 4, 7-methyl-2-((7-methyl-[1,2,4]triazolo[1,5-a]pyridin-6-yl)amino)-9-(spiro[2.5]octan-6-yl)-7,9-dihydro-8H-purin-8-one]
Mean CD3^+ Vβ7.2^+ T Cells % (T cells [1]; sgRNA 0 μg/mL): 0.79%
Mean CD3^+ Vβ7.2^+ T Cells % (T cells [1]; sgRNA 0.026 μg/mL): 35.20%
Mean CD3^+ Vβ7.2^+ T Cells % (T cells [1]; sgRNA 0.052 μg/mL): 44.50%
Mean CD3^+ Vβ7.2^+ T Cells % (T cells [1]; sgRNA 0.104 μg/mL): 52.60%
Mean CD3^+ Vβ7.2^+ T Cells % (T cells [1]; sgRNA 0.209 μg/mL): 56.10%
Mean CD3^+ Vβ7.2^+ T Cells % (T cells [1]; sgRNA 0.418 μg/mL): 53.80%
Mean CD3^+ Vβ7.2^+ T Cells % (T cells [1]; sgRNA 0.835 μg/mL): 53.30%
Mean CD3^+ Vβ7.2^+ T Cells % (T cells [1]; sgRNA 1.67 μg/mL): 49.65%
Unintended Structural Variance (Average) (T cells [2]): 1.46%
Mean percent editing at AAVS1 (NK cells; DNA-PKI 0.125 uM): 96.77%
Mean percent editing at AAVS1 (NK cells; DNA-PKI 0.5 uM): 97.67%
